Reference: paper PMC12839014, “Machine Learning-Based Virtual Screening for the Identification of Novel CDK-9 Inhibitors” (Biomolecules, 2025)
Like-named read-outs stand apart in the source and are kept apart here. Each block holds one compound with its values, some of them ahead of it.

Experiments:
MCF-7 cells = experiment: Cell viability assay (SRB), MCF-7; type: cell-based; conditions: 72 h; for cell viability (antiproliferative effect): MCF-7, single agent, SRB
Method: (§1) HeLa, MCF-7, and MDA-MB-231 cells were seeded in triplicate into 96-well plates at densities of 1500, 3500, and 3000 cells per well, respectively, and allowed to adhere for 24 h. After 72 h of incubation, cells were fixed with 10% (v/v) trichloroacetic acid (TCA) and subsequently stained with 0.4% (w/v) sulforhodamine B (SRB) dissolved in 1% (v/v) acetic acid. Cell viability was quantified and expressed as a percentage relative to untreated control cells, which were normalized to 100%. Data represent the mean ± standard deviation (SD) from three independent experiments (n = 3). Statistical significance was determined using one-way ANOVA or Student’s t-test, followed by appropriate multiple-comparison post hoc tests to evaluate differences between experimental groups.

MDA-MB-231 cells = experiment: Cell viability assay (SRB), MDA-MB-231; type: cell-based; conditions: 72 h; for cell viability (antiproliferative effect): MDA-MB-231, single agent, SRB
Method: as §1

HeLa cells = experiment: Cell viability assay (SRB), HeLa; type: cell-based; conditions: 72 h; for cell viability (antiproliferative effect): single agent, SRB
Method: as §1

CDK9/cyclin T1 = target: T1, CDK9/cyclin T1 (Homo sapiens, UniProt P50750); experiment: ADAPTA kinase assay (TR-FRET), CDK9 inhibition; type: biochemical; conditions: for IC50: CDK9 inhibitory activity
T1 construct: purchased Thermo Fisher Scientific, Madison, WI, USA
Method: The inhibitory activity of the compounds identified by the VS was evaluated against CDK9/cyclin T1 using the fluorescence-based ADAPTA kinase assay (Thermo Fisher Scientific, Madison, WI, USA). The assay quantifies ADP generated during the kinase reaction through a competitive immunoassay employing a TR-FRET detection system. In the presence of an inhibitor, ADP formation by the kinase is reduced, leading to preservation of the antibody–tracer complex and a corresponding increase in the TR-FRET signal. Inhibitory potency was expressed as IC50 values, determined from logistic dose–response curves with 10 concentration points, each representing the average of two independent experiments.

[1] = test system: HeLa cells transfected with siCTR or siCDK9; experiment: Cell viability in HeLa cells with siRNA-mediated CDK9 knockdown; type: cell-based; conditions: 100 nM siCDK9 vs siCTR, 72 h treatment
Method: as §1
Consistently, when CDK9 is depleted, the overall impact of compound 1 is reduced.
Figure S2. HeLa cells were transfected with 100 nM of siCTR or siCDK9. After 24 hours of incubation, the cells were plated for the indicated treatment time points and incubated for an additional 24 hours, followed by treatment with the speciﬁed drug concentrations for another 72 hours. Results are presented as the mean ± SD from three independent experiments. *p< […], **p< 0.01, *** p < 0.001 and **** p < 0.0001.
(1 picture or pasted object on this page, not shown here)

[2] = test system: pRPA32 S4/8 in HeLa cells; experiment: Immunofluorescence analysis of pRPA32 S4/8 (HR activity); type: cell-based; conditions: 1 h pretreatment with compound 1 or DMSO, then 2 h CPT
Method: (§2) HeLa cells were fixed in 4% paraformaldehyde and subsequently permeabilized with 0.2% Triton X-100. Blocking was performed with 1% bovine serum albumin (BSA) for 10 min at room temperature. Cells were then incubated for 1 h at RT with primary antibodies targeting: γH2AX Ser139 (1:200, ab2893, Abcam, Cambridge, UK) or pRPA32 S4/8 (1:200, A300-245A, Bethyl Laboratories, Montgomery, TX, USA). Corresponding secondary antibody conjugated with AlexaFluor 647 donkey anti-rabbit IgG (H + L) was applied. Samples were mounted using ProLong™ Gold Antifade Mountant with DAPI (Thermo Fisher Scientific). High-resolution immunofluorescence imaging was performed on a Zeiss LSM 900 Airyscan2 confocal microscope equipped with a Plan-Apochromat 63×/1.4 NA oil immersion objective. Image acquisition and processing utilized Zen 3.9 software Zeiss, Jena, Germany). Quantification of fluorescent foci per nucleus was conducted using Fiji (ImageJ) software, version 2.14.0/1.54f.
Figure S4. A) HeLa cells were pre-treated with compound 1 (reported as Cmp 1) or DMSO for one hour, followed by incubation with CPT. Thirty cells per condition were analyzed from three independent experiments, with results reported as the standard deviation (SD). Statistical analysis was performed using Welch’s corrected Student’s t-test to account for heteroscedasticity in the data. […]

[3] = test system: γH2AX Ser139 foci in HeLa cells; experiment: Immunofluorescence analysis of γ-H2AX foci; type: cell-based; conditions: 1 h pretreatment with compound 1, then 2 h CPT, combination vs CPT alone
Method: as §2
Figure S3. […] Thirty cells were evaluated per condition. Data are expressed as the mean ± standard deviation (SD) from three separate experiments. Statistical signiﬁcance was determined using Welch’s corrected Student’s t-test to account for potential variance diﬀerences between samples. **** p < 0.0001. […]

[4] = 10 concentration points, average of two independent experiments, read-out: Experimental IC50

T1 sequence (P50750 whole entry): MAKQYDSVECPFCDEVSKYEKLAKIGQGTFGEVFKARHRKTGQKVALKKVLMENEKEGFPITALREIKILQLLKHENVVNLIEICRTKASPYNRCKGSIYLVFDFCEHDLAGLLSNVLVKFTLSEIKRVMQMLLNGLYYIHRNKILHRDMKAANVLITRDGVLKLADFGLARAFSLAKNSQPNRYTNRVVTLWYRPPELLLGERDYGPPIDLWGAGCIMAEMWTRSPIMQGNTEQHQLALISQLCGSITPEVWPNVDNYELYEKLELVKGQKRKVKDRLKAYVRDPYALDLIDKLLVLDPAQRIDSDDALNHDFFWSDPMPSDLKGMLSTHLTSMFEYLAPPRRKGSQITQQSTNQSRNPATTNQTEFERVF
T1 sequence (O60563 whole entry partner): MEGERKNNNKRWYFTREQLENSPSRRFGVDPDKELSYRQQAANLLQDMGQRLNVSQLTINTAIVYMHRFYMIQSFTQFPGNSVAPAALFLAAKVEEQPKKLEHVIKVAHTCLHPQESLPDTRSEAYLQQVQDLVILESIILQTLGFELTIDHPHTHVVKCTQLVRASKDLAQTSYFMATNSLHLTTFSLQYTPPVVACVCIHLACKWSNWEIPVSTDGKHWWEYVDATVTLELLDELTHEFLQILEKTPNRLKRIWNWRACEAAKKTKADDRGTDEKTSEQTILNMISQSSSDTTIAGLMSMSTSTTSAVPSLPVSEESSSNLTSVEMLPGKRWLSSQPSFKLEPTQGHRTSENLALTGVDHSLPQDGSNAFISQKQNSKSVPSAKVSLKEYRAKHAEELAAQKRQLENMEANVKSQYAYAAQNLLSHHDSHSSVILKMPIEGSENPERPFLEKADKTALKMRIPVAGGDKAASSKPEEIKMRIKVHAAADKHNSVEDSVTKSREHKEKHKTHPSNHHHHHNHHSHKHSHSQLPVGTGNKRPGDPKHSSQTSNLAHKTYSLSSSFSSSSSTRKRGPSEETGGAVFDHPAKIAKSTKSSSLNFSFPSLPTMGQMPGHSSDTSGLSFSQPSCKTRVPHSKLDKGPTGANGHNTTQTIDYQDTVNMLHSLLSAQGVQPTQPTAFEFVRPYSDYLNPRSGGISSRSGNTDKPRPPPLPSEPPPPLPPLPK

SMILES: CC[C@@]1(O)C(=O)OCc2c1cc1n(c2=O)Cc2cc3ccccc3nc2-1 [CPT, Camptothecin, reference compound]
- cell viability (antiproliferative effect) (MCF-7 cells): detectable cytotoxic effect
- cell viability (antiproliferative effect) (MDA-MB-231 cells): detectable cytotoxic effect
- cell viability (antiproliferative effect) (HeLa cells): detectable cytotoxic effect

SMILES: COc1ccccc1-c1ccnc(NC2CC3CCC(C2)N3C)n1 (centres unmarked) [Compound 1]
- IC50 (CDK9/cyclin T1; [4]): 3.51 µM
- IC50 (CDK9/cyclin T1; read-out: IC50): < 50 µM
- potency of compound 1 relative to compound 2 (CDK9/cyclin T1; in vitro enzymatic assays): five-fold
- cell viability, combination with CPT (MCF-7 cells; MCF-7, CPT fixed 5 nM + compound 1 1.85–30 µM): additive interaction
- cell viability, combination with CPT (MCF-7 cells; MCF-7, compound 1 fixed 7.5 µM + CPT 1.25–20 nM): potentiated the cytotoxic activity of CPT
- cell viability (antiproliferative effect) (MCF-7 cells): stronger antiproliferative activity
- survival of CDK9-depleted cells vs control cells [1]: higher survival
- pRPA32 S4/8 signal (HR activity) [2]: no significant changes in pRPA32 signal
- cell viability, combination with CPT (MDA-MB-231 cells; MDA-MB-231, CPT fixed 5 nM + compound 1 1.85–30 µM): additive interaction
- cell viability, combination with CPT (MDA-MB-231 cells; MDA-MB-231, compound 1 fixed 7.5 µM + CPT 1.25–20 nM): potentiated the cytotoxic activity of CPT
- cell viability (antiproliferative effect) (MDA-MB-231 cells): stronger antiproliferative activity
- DNA damage response (γ-H2AX foci) [3]: stronger DNA damage response
- cell viability, combination with CPT (HeLa cells; CPT fixed 5 nM + compound 1 1.85–30 µM): additive interaction
- cell viability, combination with CPT (HeLa cells; compound 1 fixed 7.5 µM + CPT 1.25–20 nM): potentiated the cytotoxic activity of CPT
- cell viability (antiproliferative effect) (HeLa cells): stronger antiproliferative activity

SMILES: CCOC(=O)c1sc(NC(=S)Nc2c(C)n(C)n(-c3ccccc3)c2=O)c(C(=O)OCC)c1C [Compound 2]
- IC50 (CDK9/cyclin T1; [4]): 16.8 µM
- IC50 (CDK9/cyclin T1; read-out: IC50): < 50 µM
- cell viability (antiproliferative effect) (MCF-7 cells): less effective at comparable concentrations
- cell viability (antiproliferative effect) (MDA-MB-231 cells): less effective at comparable concentrations
- cell viability (antiproliferative effect) (HeLa cells): less effective at comparable concentrations

SMILES: COc1ccc(F)cc1-c1cc(N2CCN(S(=O)(=O)Cc3ccccc3)CC2)ncn1 [Compound 3]
- IC50 (CDK9/cyclin T1; [4]): 28.6 µM
- IC50 (CDK9/cyclin T1; read-out: IC50): < 50 µM

SMILES: Cc1nn(-c2ccc(F)cc2)c2nc(CCC(C)C)nc(N3CCN(C(=O)C4CC4c4ccccc4)CC3)c12 (centres unmarked) [Compound 4]
- IC50 (CDK9/cyclin T1; [4]): 67.2 µM

SMILES: COc1cc2c(c3oc(=O)c(CCC(=O)NC4C=CS(=O)(=O)C4)c(C)c13)CCC(C)(C)O2 (centres unmarked) [Compound 5]
- IC50 (CDK9/cyclin T1; [4]): 107 µM

SMILES: O=S(=O)(N1CCCC1)N1CCN(c2ncnc3scc(-c4ccc(F)cc4)c23)CC1 [Compound 6]
- IC50 (CDK9/cyclin T1; [4]): 133 µM

The next lines start with the values.

- IC50 (CDK9/cyclin T1; [4]): > 133 µM
SMILES: Cc1cc(N2CCC3(NC(=O)c4cccc(C(C)C)n4)CCCC23)nc(CO)n1 (centres unmarked) [Compound 8]

- IC50 (CDK9/cyclin T1; [4]): > 133 µM
SMILES: Cn1nc(C(=O)N2CCC(c3cc(O)nc(N4CCCC4)n3)C2)c2ccccc21 (centres unmarked) [Compound 9]

- IC50 (CDK9/cyclin T1; [4]): > 133 µM
SMILES: Cc1cc(NC2CCN(c3ncccc3F)C2)nc(C)n1 (centres unmarked) [Compound 10]

- IC50 (CDK9/cyclin T1; [4]): > 133 µM
SMILES: COc1ccc(OC)c(-c2cc(C(=O)NCC3CCN(c4ncccn4)CC3)n(C)n2)c1 [Compound 11]

- IC50 (CDK9/cyclin T1; [4]): > 133 µM
SMILES: Nc1c2c(-c3ccccc3Cl)nc(N3CCCC3)nc2nn1-c1ccc(F)cc1 [Compound 12]

- IC50 (CDK9/cyclin T1; [4]): > 133 µM
SMILES: CCC(Sc1nc2sc(C(=O)N(C)C)c(C)c2c(=O)n1CCc1ccccc1)C(=O)NC1CCCCC1 (centres unmarked) [Compound 13]

- IC50 (CDK9/cyclin T1; [4]): > 133 µM
SMILES: COC(=O)c1c(NC(=O)c2nn3c(C(F)(F)F)cc(-c4ccc(Br)cc4)nc3c2Cl)sc2c1CCCC2 [Compound 14]
